# Values of other authors as cited in patent publication US20150313829A1, “TOPICAL FORMULATIONS FOR THE PREVENTION AND TREATMENT OF ALOPECIA AND INHIBITION OF HAIR GROWTH” (UNIVERSIDADE FEDERAL DE MINAS GERAIS -UFMG, priority 2012, published 2015).
# Tested on: murine model of alopecia
# Settings: WO 01/98325
substance,measurement,value
Asp1-Arg2-VAL3-Tyr4-Ile5-His6-Pro7 [Ang-(1-7)],hair growth,induces hair growth
same,number of mature follicles,increased the number of mature follicles
